Values quoted from earlier work, collected in PubChem BioAssay AID1259410 (Chemical Carcinogenesis Research Information System (CCRIS), 2018).

System: rodent tumor promotion studies, tumor incidence
Assay: CCRIS tumor promotion studies
Conditions: Doses [Promoter]: 0

Q: Which outcome (Carcinogen: N-ETHYL-N-NITROSOUREA, 759-73-9, Doses [Carcinogen]: 12.5 MG/KG IN POLYETHYLENE GLYCOL ONCE, 0.32 MG/PELLET IMPLANTED IN PERSISTENT ESTRUS MICE 1 WK PRIOR TO CARCINOGEN DOSE (STUDY DURATION: 16 WK), Route [Carcinogen]: INTRAUTERINE, Route [Promoter]: SUBCUTANEOUS, Species: MOUSE, Strain/Sex: CD-1/FEMALE) does the source give for `C[C@]12CC[C@@H]3c4ccc(O)cc4CC[C@H]3[C@@H]1CC[C@@H]2O` here?
A: uterus: adenocarcinoma

Q: And the outcome (Carcinogen: N-ETHYL-N-NITROSOUREA, 759-73-9, Doses [Carcinogen]: 50 MG/KG BW IN POLYETHYLENE GLYCOL ONCE AT 10 WK OF AGE, 0.5% IN CHOLESTEROL PELLET AT 9 WK OF AGE, REMOVED AFTER 8 WK (STUDY DURATION: 15 WK), Route [Carcinogen]: INTRAUTERINE, Route [Promoter]: SUBCUTANEOUS IMPLANT, Species: MOUSE, Strain/Sex: CD-1/FEMALE)?
A: uterus: tumor

Q: And the outcome (Carcinogen: N-ETHYL-N-NITROSOUREA, 759-73-9, Doses [Carcinogen]: 50 MG/KG BW IN POLYETHYLENE GLYCOL ONCE AT 10 WK OF AGE, 0.5% IN CHOLESTEROL PELLET AT 11 WK OF AGE, REMOVED AFTER 8 WK (STUDY DURATION: 15 WK), Route [Carcinogen]: INTRAUTERINE, Route [Promoter]: SUBCUTANEOUS IMPLANT, Species: MOUSE, Strain/Sex: CD-1/FEMALE)?
A: uterus: tumor

Q: What about the outcome (Carcinogen: N-ETHYL-N-NITROSOUREA, 759-73-9, Doses [Carcinogen]: 50 MG/KG BW IN POLYETHYLENE GLYCOL ONCE AT 10 WK OF AGE, 0.5% IN CHOLESTEROL PELLET AT 14 WK OF AGE, REMOVED AFTER 8 WK (STUDY DURATION: 15 WK), Route [Carcinogen]: INTRAUTERINE, Route [Promoter]: SUBCUTANEOUS IMPLANT, Species: MOUSE, Strain/Sex: CD-1/FEMALE) of the same compound?
A: uterus: tumor

Q: And the outcome (Carcinogen: N-ETHYL-N-NITROSOUREA, 759-73-9, Doses [Carcinogen]: 50 MG/KG BW IN POLYETHYLENE GLYCOL ONCE AT 10 WK OF AGE, 0.5% IN CHOLESTEROL PELLET AT 17 WK OF AGE, REMOVED AFTER 8 WK (STUDY DURATION: 15 WK), Route [Carcinogen]: INTRAUTERINE, Route [Promoter]: SUBCUTANEOUS IMPLANT, Species: MOUSE, Strain/Sex: CD-1/FEMALE)?
A: uterus: tumor

Q: And the outcome (Carcinogen: N-METHYL-N'-NITRO-N-NITROSOGUANIDINE, 70-25-7, Doses [Carcinogen]: 50 PPM FOR 60 MIN, 20 PPM IN DIET BEGINNING 14 WK POST CARCINOGEN DOSE (STUDY DURATION: 12 MO), Route [Carcinogen]: IMMERSION, Route [Promoter]: ORAL, Species: FISH, Strain/Sex: RAINBOW TROUT)?
A: liver: tumor

Q: And the outcome (Carcinogen: N-METHYL-N-NITROSOUREA, 684-93-5, Doses [Carcinogen]: 1 MG/100 G BW INJECTED INTO LEFT UTERINE TUBE ONCE, 25 PPM IN DIET FOR 29 WK BEGINNING 1 WK POST CARCINOGEN DOSE (STUDY DURATION: 30 WK), Route [Carcinogen]: INJECTION, Route [Promoter]: ORAL, Species: MOUSE, Strain/Sex: ICR/FEMALE)?
A: uterus: adenocarcinoma

Q: What about the outcome (Carcinogen: N-METHYL-N-NITROSOUREA, 684-93-5, Doses [Carcinogen]: 40 MG/KG ONCE AT 50 D OF AGE, 2.5 MG PELLET IMPLANTED ON BACK OF GONADECTOMIZED RATS MAINTAINED ON LOW- IODINE DIET (STUDY DURATION: 30 WK), Route [Carcinogen]: INTRAVENOUS, Route [Promoter]: SUBCUTANEOUS IMPLANT, Species: RAT, Strain/Sex: LONG-EVANS/FEMALE) of the same compound?
A: thyroid: adenoma, carcinoma

Q: What about the outcome (Carcinogen: N-METHYL-N-NITROSOUREA, 684-93-5, Doses [Carcinogen]: 40 MG/KG ONCE AT 50 D OF AGE, 2.5 MG PELLET IMPLANTED ON BACK OF GONADECTOMIZED RATS MAINTAINED ON LOW- IODINE DIET (STUDY DURATION: 30 WK), Route [Carcinogen]: INTRAVENOUS, Route [Promoter]: SUBCUTANEOUS IMPLANT, Species: RAT, Strain/Sex: LONG-EVANS/MALE) of the same compound?
A: thyroid: adenoma, carcinoma

Q: What about the outcome (Doses [Carcinogen]: 0, 125 PPM IN STATIC SOLUTIONS OF WATER FOR 30 MIN ADMINISTERED TO 21 DAY OLD EMBRYOS, 20 PPM BEGINNING 6 WK POST CARCINOGEN TREATMENT AND CONTINUING FOR 5 WK FOLLOWED BY CONTROL DIET FOR 1 WK THEN 0, 10, 20 PPM BEGINNING 6 WK POST CARCINOGEN TREATMENT AND CONTINUING FOR 5 WK FOLLOWED BY CONTROL DIET FOR 1 WK THEN 0, 10, Route [Carcinogen]: IMMERSION, Route [Promoter]: ORAL, Species: FISH, Strain/Sex: MT. SHASTA RAINBOW TROUT) of the same compound?
A: liver: hepatocellular carcinoma or mixed carcinoma or hepatocellular adenoma

Q: And the outcome (Doses [Carcinogen]: 0.025 PPM IN STATIC SOLUTIONS OF WATER FOR 30 MIN ADMINISTERED TO 21 DAY OLD EMBRYOS, 20 PPM BEGINNING 6 WK POST CARCINOGEN TREATMENT AND CONTINUING FOR 5 WK FOLLOWED BY CONTROL DIET FOR 1 WK THEN 0, 10, 20 PPM BEGINNING 6 WK POST CARCINOGEN TREATMENT AND CONTINUING FOR 5 WK FOLLOWED BY CONTROL DIET FOR 1 WK THEN 0, 10, Route [Carcinogen]: IMMERSION, Route [Promoter]: ORAL, Species: FISH, Strain/Sex: MT. SHASTA RAINBOW TROUT)?
A: liver: hepatocellular carcinoma or mixed carcinoma

Q: What about the outcome (Doses [Carcinogen]: 0.25 PPM IN STATIC SOLUTIONS OF WATER FOR 30 MIN, 5 PPM IN DIET BEGINNING 5 WK POST CARCINOGEN TREATMENT AND ALTERNATED EVERY OTHER WK WITH CONTROL DIET FOR DURATION O, Route [Carcinogen]: IMMERSION, Route [Promoter]: ORAL, Species: FISH, Strain/Sex: MT. SHASTA RAINBOW TROUT) of the same compound?
A: liver: hepatocellular carcinoma or mixed carcinoma

Q: What about the outcome (Doses [Carcinogen]: 0.5 PPM FOR 30 MIN, 20 PPM IN DIET BEGINNING 14 WK POST CARCINOGEN DOSE (STUDY DURATION: 12 MO), Route [Carcinogen]: IMMERSION, Route [Promoter]: ORAL, Species: FISH, Strain/Sex: RAINBOW TROUT) of the same compound?
A: liver: tumor

Q: For `S=C=NCc1ccccc1`, which outcome (Carcinogen: DIETHYLNITROSAMINE, 55-18-5, N-BUTYL-N-(4-HYDROXYBUTYL)NITROSAMINE, 3817-11-6, Carcinogen: DIETHYLNITROSAMINE, 55-18-5, N-BUTYL-N-(4-HYDROXYBUTYL)NITROSAMINE, 3817-11-6, Doses [Carcinogen]: 200 MG/KG DEN ONCE THEN 0.05% BBN IN DRINKING WATER FOR 4 WK, 0.1% IN DIET FOR 32 WK BEGINNING 3 D POST CARCINOGEN TREATMENT (STUDY DURATION:36 WK), Route [Carcinogen]: INTRAPERITONEAL, ORAL, Route [Promoter]: ORAL, Species: RAT, Strain/Sex: F344/MALE) is on record?
A: urinary bladder: papilloma, carcinoma

Q: With `C=Cc1c(C)c2[n-]c1=CC1=NC(=CC3=C(C)C(=C([O-])[O-])C(=N3)C(CC(=O)[O-])=C3N=C(C=2)C(C)C3CCC(=O)[O-])C(CC)=C1C.[Cu+2].[Na+].[Na+].[Na+]` (centres undefined) as the compound, how does the outcome (Carcinogen: 1,2-DIMETHYLHYDRAZINE, 540-73-8, Doses [Carcinogen]: 20 MG/KG/BW 1/WK FOR 5 WK, 1.5 MILLIMOLAR IN DRINKING WATER BEGINNING POST CARCINOGEN TREATMENT AND CONTINUING FOR DURATION OF STUDY (STUDY DURA, Route [Carcinogen]: INTRAPERITONEAL, Route [Promoter]: ORAL, Species: RAT, Strain/Sex: F344/MALE) read?
A: colorectal: tumor

Q: What about the outcome (Carcinogen: 1,2-DIMETHYLHYDRAZINE, 540-73-8, Doses [Carcinogen]: 20 MG/KG/BW 1/WK FOR 5 WK, 1.5 MILLIMOLAR IN DRINKING WATER THROUGHOUT THE STUDY (STUDY DURATION: 25 WK), Route [Carcinogen]: INTRAPERITONEAL, Route [Promoter]: ORAL, Species: RAT, Strain/Sex: F344/MALE) of the same compound?
A: colorectal: tumor

Q: Which outcome (Carcinogen: DIETHYLNITROSAMINE, 55-18-5, N-BUTYL-N-(4-HYDROXYBUTYL)NITROSAMINE, 3817-11-6, Carcinogen: DIETHYLNITROSAMINE, 55-18-5, N-BUTYL-N-(4-HYDROXYBUTYL)NITROSAMINE, 3817-11-6, Doses [Carcinogen]: 200 MG/KG DEN ONCE THEN 0.05% BBN IN DRINKING WATER FOR 4 WK, 0.1% IN DIET FOR 32 WKS BEGINNING 3 D POST CARCINOGEN TREATMENT (STUDY DURATION:36 WK), Route [Carcinogen]: INTRAPERITONEAL, ORAL, Route [Promoter]: ORAL, Species: RAT, Strain/Sex: F344/MALE) does the source give for `S=C=NCCc1ccccc1` here?
A: urinary bladder: carcinoma

Q: With `CC(=O)Oc1ccc(C(c2ccc(OC(C)=O)cc2)c2ccccn2)cc1` as the compound, how does the outcome (Carcinogen: AZOXYMETHANE, 25843-45-2, Doses [Carcinogen]: 15 MG/KG TWICE ON DAYS 1 AND 5 OF TREATMENT, 4.3, 43 MG/KG/D 6 D/WK FOR 13 WK (STUDY DURATION: 13 WK), 4.3, 43 MG/KG/D 6 D/WK FOR 13 WK (STUDY DURATION: 13 WK), Route [Carcinogen]: INTRAPERITONEAL, Route [Promoter]: GAVAGE, Species: RAT, Strain/Sex: WISTAR/MALE) read?
A: colon: adenocarcinoma

Q: Which outcome (Carcinogen: N-NITROSOBIS(2-HYDROXYPROPYL)AMINE;53609-64-6, Doses [Carcinogen]: 2000 MG/KG BW ONCE, 0.002%, 0.008%, 0.03%, 0.125%, 0.5%, 2% IN DIET FOR 20 WK BEGINNING 1 WK POST CARCINOGEN TREATMENT (STUDY DURATION: 2, 0.002%, 0.008%, 0.03%, 0.125%, 0.5%, 2% IN DIET FOR 20 WK BEGINNING 1 WK POST CARCINOGEN TREATMENT (STUDY DURATION: 2, Route [Carcinogen]: SUBCUTANEOUS, Route [Promoter]: ORAL, Species: RAT, Strain/Sex: F344/MALE) does the source give for `O=c1cc(CO)occ1O` here?
A: thyroid gland: adenoma, carcinoma
